Patent US20080118918A1, “Compositions and Methods For Determining and Predicting Treatment Responses For Depression and Anxiety” (THE REGENTS of the University of California, priority 2004, published 2008)

What was measured:
CNS CRH gene expression = conditions: in vivo; cited from earlier work
[1] = test system: depressed Mexican-Americans; test: prospective randomized, placebo lead-in, double-blind treatment of fluoxetine or desipramine for eight weeks; HAM-A and HAM-D changes stratified by CRHR1 GAG haplotype; format: in vivo, human; conditions: fluoxetine 10 mg-40 mg/day vs desipramine 50 mg-200 mg/day, 8 weeks
Description: The primary outcome measures of the association analysis were the changes in the Hamilton rating scales for anxiety (HAM-A) and depression (HAM-D).
All patients were followed weekly and assessed for changes in the Hamilton rating scales for anxiety (HAM-A) and depression (HAM-D). Inclusion criteria in the study included a HAM-D of 18 or higher. Patients were classified into a high anxiety (HA) group if their HAM-A score was 18 or higher and in a low anxiety (LA) group if their HAM-A score was less than 18.
The study population consisted of 233 depressed subjects enrolled in an ongoing pharmacogenetic study of antidepressant treatment response to desipramine or fluoxetine. Data from the first 80 subjects who completed the protocol and for whom we had available genetic data are reported herein. […] All patients are Mexican-American men and women ages 21-68, with a current episode of major depression as diagnosed by the DSM-IV. In this study, all Mexican-American subjects had at least three grandparents born in Mexico. […]
Eighty subjects were divided into a low anxiety group (LA) with HAM-A score less than 18 at screening and a high anxiety group (HA), with HAM-A scores that were 18 or higher at screening. […] Demographics of the LA group and HA group were assessed for homogeneity using χ^2 or t-tests, as appropriate.

| SMILES | effects on downregulating CNS CRH gene expression (CNS CRH gene expression) | antidepressant effectiveness, comparison of the two drugs [1] |
| --- | --- | --- |
| CNCCCN1c2ccccc2CCc2ccccc21 [desipramine] | equal effects on downregulating CNS CRH gene expression | no differences between the two drugs in terms of antidepressant effectiveness have been observed |
| CNCCC(Oc1ccc(C(F)(F)F)cc1)c1ccccc1 (stereo not shown) [fluoxetine] | equal effects on downregulating CNS CRH gene expression | no differences between the two drugs in terms of antidepressant effectiveness have been observed |
